How the values were obtained:
hpol η [1] = biological target: T1, hpol η (Homo sapiens, UniProt Q9Y253); assay: Fluorescence-based DNA polymerase strand-displacement assay; type: biochemical
T1 construct: human DNA polymerases η (amino acids 1-437); 6x-histidine (N, cleaved yes); GST (N, cleaved yes); made in house; host or cells: Escherichia coli BL21 (DE3)
T1 sequence (Q9Y253 1-437): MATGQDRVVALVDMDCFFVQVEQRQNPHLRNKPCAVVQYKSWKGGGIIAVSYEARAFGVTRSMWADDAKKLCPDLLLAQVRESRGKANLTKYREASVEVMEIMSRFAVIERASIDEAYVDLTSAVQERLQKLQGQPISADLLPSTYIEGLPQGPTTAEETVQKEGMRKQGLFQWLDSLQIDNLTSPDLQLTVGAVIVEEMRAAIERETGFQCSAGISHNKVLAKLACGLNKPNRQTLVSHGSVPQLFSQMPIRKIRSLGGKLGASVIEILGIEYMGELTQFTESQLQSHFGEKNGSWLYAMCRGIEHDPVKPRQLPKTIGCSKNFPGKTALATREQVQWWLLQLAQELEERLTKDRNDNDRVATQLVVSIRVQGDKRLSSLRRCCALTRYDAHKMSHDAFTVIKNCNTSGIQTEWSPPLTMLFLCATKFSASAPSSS
Source text: A library of 320 compounds targeted against nucleic acid interacting proteins was screened for inhibition of polymerase activity using an assay that monitors fluorescence from a 5-carboxytetramethylrhodamine (TAMRA) labeled oligonucleotide. In order to prepare the DNA for the experiment, a TAMRA-labeled reporter (or displaced) strand (SEQ ID NO. 4: 5′-TTT TTT TTG C-TAMRA-3′) and unlabeled primer strand (SEQ ID NO. 5: 5′-TCA CCC TCGTAC GAC TCT T-3′) were annealed to a Black Hole Quencher (BHQ)-labeled template strand (SEQ ID NO. 6: 5′BHQ2-GCAAAAAAAAAA GAG TCG TAC GAG GGT GA-3′) in a solution containing 10 mM Tris (pH 8.0), 50 mM NaCl, 2 mM MgCl2, and dH2O. The template (T), primer (P) and displaced strand (D) oligonucleotides were mixed in a 1:1.5:1.5 (T:P:D) molar ratio for annealing. After an incubation period of three minutes at 95° C., the DNA was allowed to slowly cool to room temperature overnight.
The fluorescence-based assay used to screen for polymerase inhibitors measures polymerase-catalyzed displacement of a TAMRA-labeled oligonucleotide (FIG. 1). For the initial screen, the experimental setup included 50 nM hpol η), 50 nM DNA, 6 μM compound, 100 μM dTTP and 1 mM MgCl2. The reactions were performed in 50 mM Tris (pH 8.0) buffer containing 40 mM NaCl, 2 mM dithiothreitol, and 0.01% (v/v) Tween-20. The concentration of dimethyl sulfoxide (DMSO) was 3.5% (v/v) for the initial screen. The enzyme, the compounds (including a DMSO control) and dTTP were combined with the reaction buffer in individual wells of each half-plate and allowed to incubate for 5-10 minutes. The DNA substrate was subsequently added to initiate the reaction and the plate was read immediately using a BioTek SynergyH4 plate reader (λex=525 nm, λem=598 run). The final reaction volume was 200 μL. Fluorescence was monitored for 90 minutes for most reactions. The initial portion of the velocity curve was analyzed by linear regression to calculate an observed rate of product formation. For each data set, eight DMSO control experiments were averaged to obtain our measure of 100% activity. Rates of product formation in the presence of each compound were then divided by the rate of the DMSO control to produce a relative measure of polymerase activity (0 to 1, with 1 being no inhibition).
(§1) In order to determine the IC50 value for each enzyme, the fluorescence-based polymerase assay was repeated with increasing concentrations of inhibitor. The conditions varied slightly for each enzyme. With the exception of hpol ι, all IC50 experiments were performed in 50 mM Tris HCl (pH 8.0) buffer containing 1 mM MgCl2, 0.1 mM dTTP, 40 mM NaCl, 2 mM DTT, 0.01% (v/v) Tween-20 and 10% (v/v) DMSO. For experiments with hpol ι, KCl was substituted for NaCl and 0.25 mM MnCl2 was substituted for MgCl2. The concentration of inhibitor was 0, 1, 5, 10, 20, 30, 50, 75 and 100 μM. The enzyme and DNA concentrations were as follows: 10 nM hpol η, 50 nM DNA; 3 nM hpol κ, 60 nM DNA; 50 nM hpol ι, 50 nM DNA; 10 nM Dpo4, 50 nM DNA; 100 nM Dpo1, 50 nM DNA; 50 nM hpol β, 50 nM DNA; 50 nM HIV-1 RT, 50 nM DNA. The percent activity was plotted as a function of the log of inhibitor concentration and fit to a four-parameter logistic model (equation 1) using Prism software (Graph Pad, San Diego, Calif.): […]

hpol η [2] = biological target: T1, hpol η; assay: Steady-state kinetic analysis of DNA polymerase activity; type: biochemical; settings: for kcat: varying dTTP
Description: The steady-state kinetic parameters defining polymerase activity in the presence of inhibitor were determined using the fluorescence-based reporter assay. Hpol q activity was monitored in the presence of increasing concentrations of dTTP (1, 5, 10, 20, 30, 50, 75, and 100 μM). The measured relative fluorescence units (RFUs) were converted to a nanomolar quantity by calculating the total change in fluorescence observed between the start of the reaction and the time point at which the fluorescence change was maximal, and considering that change to be 100% of substrate converted to product. The percentage of substrate converted to product was multiplied by the concentration of dsDNA in the reaction mixture. Product formation was then plotted as a function of time, and by considering only the linear portion of each curve, velocities were calculated for each dTTP concentration. These were then plotted as a function of dTTP concentration, and fit to a hyperbola. After correcting for enzyme concentration, the steady-state kinetic parameters were obtained as described previously. The experiments were then repeated in the presence of inhibitor (10, 20 and 40 μM) to determine the effect of the small-molecule upon Michaelis-Menten kinetics.
Next, the mechanism of polymerase inhibition by ITBA-3 was investigated. The Michaelis-Menten kinetic parameters describing hpol η activity were measured in the presence of increasing concentrations of inhibitor. By varying the concentration of dTTP in the reaction mixture, the turnover number (kcat) and Michaelis constant (Km,dTTP) for hpol η were determined in the absence of inhibitor and at three concentrations of ITBA-3 (Table 3).

Dpo1 = biological target: T2, Dpo1 (Saccharolobus solfataricus, UniProt P26811); assay: Fluorescence-based polymerase assay, IC50; type: biochemical, Sulfolobus solfataricus
T2 construct: made in house
Description: as §1

hpol η [3] = biological target: T1, hpol η; assay: Gel-based polymerase extension assay; type: biochemical; settings: 6 μM, 13 μM and 60 μM
Description: In order to provide a second measure of enzyme inhibition, polymerase extension assays were performed. Briefly, hpol η (2 nM) was pre-incubated with FAM-13/18-mer primer-template DNA ([…]) and either DMSO (final concentration=10%) or compound (6 μM, 13 μM and 60 μM; maintaining 10% DMSO for all experiments). Polymerase catalysis was initiated by the addition of dNTP (1 mM) and MgCl2 (5 mM). The reaction was allowed to proceed at 37° C. for varying times and then terminated by the addition of 5 μL aliquots of the reaction mix to 25 μL of the quench solution (20 mM EDTA, 95% (v/v) formamide and 0.1% (w/v) bromophenol blue). The samples were separated using a 16% polyacrylamide/7M urea gel and the products analyzed using a Typhoon imager and ImageQuant™ software (GE Healthcare Life Sciences).

hpol β = biological target: T3, hpol β (Homo sapiens, UniProt P06746); assay: Fluorescence-based polymerase assay, IC50; type: biochemical
T3 construct: purchased Enzymax (Lexington, Ky.)
Description: as §1

T2 sequence (P26811 whole entry): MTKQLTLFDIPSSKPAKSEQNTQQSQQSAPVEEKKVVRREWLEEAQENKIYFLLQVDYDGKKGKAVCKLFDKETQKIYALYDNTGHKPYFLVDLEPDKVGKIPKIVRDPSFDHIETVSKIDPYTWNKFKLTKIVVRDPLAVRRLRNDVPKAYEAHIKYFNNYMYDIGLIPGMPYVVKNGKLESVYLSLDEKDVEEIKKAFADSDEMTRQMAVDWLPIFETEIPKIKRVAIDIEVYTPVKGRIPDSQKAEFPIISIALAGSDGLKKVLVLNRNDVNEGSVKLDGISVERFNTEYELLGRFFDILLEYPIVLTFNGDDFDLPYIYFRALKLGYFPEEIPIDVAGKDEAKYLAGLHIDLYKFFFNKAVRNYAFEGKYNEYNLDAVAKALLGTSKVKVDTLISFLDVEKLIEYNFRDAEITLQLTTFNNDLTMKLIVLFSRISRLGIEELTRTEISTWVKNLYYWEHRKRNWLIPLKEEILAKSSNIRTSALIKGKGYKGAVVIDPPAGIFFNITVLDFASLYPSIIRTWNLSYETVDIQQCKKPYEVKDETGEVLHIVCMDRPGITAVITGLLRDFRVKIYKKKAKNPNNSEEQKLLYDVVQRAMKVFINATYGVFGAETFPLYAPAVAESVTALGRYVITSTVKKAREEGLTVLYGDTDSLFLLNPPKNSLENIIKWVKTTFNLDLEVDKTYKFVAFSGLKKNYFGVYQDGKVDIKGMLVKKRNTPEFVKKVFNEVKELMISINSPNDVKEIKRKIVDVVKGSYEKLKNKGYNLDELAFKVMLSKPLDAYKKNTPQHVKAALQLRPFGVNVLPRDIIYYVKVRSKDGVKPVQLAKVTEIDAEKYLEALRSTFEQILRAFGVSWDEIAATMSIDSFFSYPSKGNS

Structure (SMILES): O=C1NC(=S)NC(=O)C1=Cc1cn(C(=O)c2ccccc2Br)c2ccc(Cl)cc12 [ITBA-3, 5-((1-(2-bromobenzoyl)-5-chloro-1H-indol-3-yl)methylene)-2-thioxodihydropyimidine-4,6-(1H,5H)-dione]
- IC50 (hpol η [1]; 10 nM hpol η, 50 nM DNA, mean ± standard deviation of three data sets, read-out: IC50 for inhibition of hpol η): 29.8 ± 2.7 µM
- polymerase activity at increasing concentrations of inhibitor, fluorescence assay (hpol η [1]; 6 μM, 13 μM and 20 μM): dose-dependent decrease in polymerase activity
- hpol η percent activity relative to the control assay (hpol η [1]; 50 μM compound): dramatic improvement in activity
- kcat (hpol η [2]; 10 μM inhibitor): 0.04 ± 0.0017 s⁻¹
- kcat (hpol η [2]; 20 μM inhibitor): 0.05 ± 0.005 s⁻¹
- kcat (hpol η [2]; 40 μM inhibitor): 0.0517 ± 0.0033 s⁻¹
- mode of inhibition (hpol η [2]; with respect to dTTP): competitive
- IC50 (Dpo1): ~80 µM
- polymerase activity at increasing concentrations of inhibitor, gel-based analysis (hpol η [3]): dose-dependent decrease in polymerase activity
- IC50 (hpol β): < 50 µM

Reference: patent publication US20160075689A1, “POLYMERASE, ENDONUCLEASE, AND HELICASE INHIBITORS AND METHODS OF USING THEREOF” (THE BOARD OF TRUSTEES OF THE UNIVERSITY OF ARKANSAS, priority 2013, published 2016)
